ChEMBL document CHEMBL1128011, “Discovery of nonpeptide potent conformationally restricted angiotensin II receptor antagonists” (Bioorg Med Chem Lett, 1994)

Target: T1, Type-1 angiotensin II receptor B (Rattus norvegicus, UniProt P29089)
T1 sequence (P29089 whole entry): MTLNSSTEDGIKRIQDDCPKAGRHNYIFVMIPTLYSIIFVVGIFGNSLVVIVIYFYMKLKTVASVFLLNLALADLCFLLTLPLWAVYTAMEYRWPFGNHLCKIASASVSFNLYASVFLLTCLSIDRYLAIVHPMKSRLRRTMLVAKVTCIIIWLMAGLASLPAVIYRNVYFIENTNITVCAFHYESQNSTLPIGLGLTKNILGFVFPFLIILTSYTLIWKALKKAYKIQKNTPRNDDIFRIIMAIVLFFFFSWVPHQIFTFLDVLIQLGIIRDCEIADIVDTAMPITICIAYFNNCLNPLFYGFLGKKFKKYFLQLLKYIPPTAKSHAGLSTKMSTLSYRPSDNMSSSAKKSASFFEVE
Assay: Inhibition of [125-I]-labeled angiotensin II binding to AT1 receptor in rat uterine membranes
Assay type: cell membranes, Membrane
Settings: not given

IC50 [nM]	SMILES
> 10000	CCCCc1ncc2n1[C@H](c1ccc(-c3ccccc3-c3nnn(C(c4ccccc4)(c4ccccc4)c4ccccc4)n3)cc1)CC[C@@H]2N1C(=O)CCC1=O
> 10000	CCCCn1nc2n(c1=O)C(c1ccc(-c3ccccc3-c3nnn(C(c4ccccc4)(c4ccccc4)c4ccccc4)n3)cc1)CCC2CCC (stereo not given)
> 10000	CCCCc1ncc2n1[C@H](c1ccc(-c3ccccc3-c3nnn(C(c4ccccc4)(c4ccccc4)c4ccccc4)n3)cc1)C[C@@H](Br)[C@@H]2N1C(=O)CCC1=O
> 10000	CCCCc1cn(Cc2ccc(-c3ccccc3-c3nnn(C(c4ccccc4)(c4ccccc4)c4ccccc4)n3)cc2)c(CCCC)n1

More lines, now with the values behind:

SMILES	IC50 [nM]
CCCCc1ncc2n1C(c1ccc(-c3ccccc3-c3nnn[nH]3)cc1)CC=C2 (stereo not given)	120
CCCCn1nc2n(c1=O)C(c1ccc(-c3ccccc3-c3nn[nH]n3)cc1)CCC2 (stereo not given)	> 10000
CCCCc1nc(Cl)c2n1[C@H](c1ccc(-c3ccccc3-c3nn[nH]n3)cc1)CC[C@@H]2N1C(=O)CCC1=O	11
CCCCc1ncc2n1[C@H](c1ccc(-c3ccccc3-c3nn[nH]n3)cc1)CC[C@@H]2N1C(=O)CCC1=O	15
CCCCc1cn(Cc2ccc(-c3ccccc3-c3nnn[nH]3)cc2)c(CCCC)n1	63
CCCCc1nc(CCCC)n2c1C=CCC2c1ccc(-c2ccccc2-c2nn[nH]n2)cc1 (stereo not given)	190

Target: T1, Type-1 angiotensin II receptor B
Assay: Displacement of [125-I]-labeled angiotensin II from Angiotensin II receptor, type 1 of rat uterine membranes
Assay type: cell membranes, Membrane
Settings: not given

IC50 [nM]	SMILES
> 10000	CCCCn1nc(C(CCC)CCO)n(Cc2ccc(-c3ccccc3-c3nnn(C(c4ccccc4)(c4ccccc4)c4ccccc4)n3)cc2)c1=O (stereo not given)
> 10000	CCCCn1nc2n(c1=O)C(c1ccc(-c3ccccc3-c3nnn(C(c4ccccc4)(c4ccccc4)c4ccccc4)n3)cc1)CCC2CCC (stereo not given)
> 10000	CCCCn1nc(C(CCC)CC2=NC(C)(C)CO2)n(Cc2ccc(-c3ccccc3-c3nnn(C(c4ccccc4)(c4ccccc4)c4ccccc4)n3)cc2)c1=O (stereo not given)
500	CCCCN1N=C(CCC)C(Cc2ccc(-c3ccccc3-c3nn[nH]n3)cc2)C1=O (stereo not given)
> 10000	CCCCn1nc(C(Br)CCC)n(Cc2ccc(-c3ccccc3-c3nnn(C(c4ccccc4)(c4ccccc4)c4ccccc4)n3)cc2)c1=O (stereo not given)
5	CCCCc1nn(CCCC)c(=O)n1Cc1ccc(-c2ccccc2-c2nnn[nH]2)cc1
> 10000	CCCCc1nn(CCCC)c(=O)n1Cc1ccc(-c2ccccc2-c2nnn(C(c3ccccc3)(c3ccccc3)c3ccccc3)n2)cc1
> 10000	CCCCn1nc(C(CCC)CCBr)n(Cc2ccc(-c3ccccc3-c3nnn(C(c4ccccc4)(c4ccccc4)c4ccccc4)n3)cc2)c1=O (stereo not given)

The remaining lines, values behind:

SMILES	IC50 [nM]
CCCCc1ncc2n1C(c1ccc(-c3ccccc3-c3nnn[nH]3)cc1)CC=C2 (stereo not given)	> 10000
CCCCN1N=C(CCC)/C(=C/c2ccc(-c3ccccc3-c3nn[nH]n3)cc2)C1=O	45000
CCCC1CCC(c2ccc(-c3ccccc3-c3nnn[nH]3)cc2)n2c1n[nH]c2=O (stereo not given)	> 10000
CCCCn1nc2n(c1=O)C(c1ccc(-c3ccccc3-c3nn[nH]n3)cc1)CCC2CCC (stereo in doubt; 12)	1800
CCCCn1nc2n(c1=O)C(c1ccc(-c3ccccc3-c3nn[nH]n3)cc1)CCC2CCC (stereo in doubt; 13)	1600

Organism: Oryctolagus cuniculus
Assay: Compound was tested in vitro for its ability to antagonize the AII-mediated contraction of rabbit aortic rings
Assay type: functional, Aorta
Settings: not given

SMILES	pA2
CCCCc1ncc2n1[C@H](c1ccc(-c3ccccc3-c3nn[nH]n3)cc1)CC[C@@H]2N1C(=O)CCC1=O	8.6

Same assay, conditions: Oryctolagus cuniculus, Aorta; read-out: pA2 (converted)

SMILES	Kb [nM]
CCCCc1nc(Cl)c2n1[C@H](c1ccc(-c3ccccc3-c3nn[nH]n3)cc1)CC[C@@H]2N1C(=O)CCC1=O	1.58
